The structures appear in SMILES notation. Converted amounts (≈) assume the structure as drawn.

Common to all, as to type: functional
Test [1] has as its system Enterococcus faecalis. In words: In vitro antibacterial activity against VRE (Vancomycin Resistant Enterococcus faecalis SR-7914).
The subject of test [2] is Staphylococcus aureus. In words: In vitro antibacterial activity against MRSA (Methicillin Resistant Staphylococcus aureus SR-3637).
Test [3] has as its system Enterococcus faecium. In words: In vitro antibacterial activity against VRE (Vancomycin Resistant Enterococcus faecium SR-7917).

Consider `CN[C@H](CC(C)C)C(=O)N[C@H]1C(=O)N[C@@H](CC(N)=O)C(=O)N[C@H]2C(=O)N[C@H]3C(=O)NC(C(=O)N[C@@H](C(=O)NC(=O)[C@H](Cc4c[nH]cn4)NC(=O)[C@H](CCCCN)NC(=O)[C@@H](N)Cc4c[nH]c5ccccc45)c4cc(O)cc(O)c4-c4cc3ccc4O)[C@H](O[C@H]3C[C@](C)(N)[C@@H](O)[C@H](C)O3)c3ccc(c(Cl)c3)Oc3cc2cc(c3O[C@@H]2O[C@H](CO)[C@@H](O)[C@H](O)[C@H]2O)Oc2ccc(cc2Cl)[C@H]1O`, for which the MIC (as a rule, the lowest concentration found to suppress growth) in test [1] is 64 µg/mL (≈ 33.7 µM); in test [2] it was less than 0.125 µg/mL; in test [3], 8 µg/mL (≈ 4.21 µM).
Take `CN[C@H](CC(C)C)C(=O)N[C@H]1C(=O)N[C@@H](CC(N)=O)C(=O)N[C@H]2C(=O)N[C@H]3C(=O)NC(C(=O)N[C@@H](C(=O)NC(=O)[C@H](CCCCN)NC(=O)[C@H](Cc4c[nH]c5ccccc45)NC(=O)[C@@H](N)CC(C)C)c4cc(O)cc(O)c4-c4cc3ccc4O)[C@H](O[C@H]3C[C@](C)(N)[C@@H](O)[C@H](C)O3)c3ccc(c(Cl)c3)Oc3cc2cc(c3O[C@@H]2O[C@H](CO)[C@@H](O)[C@H](O)[C@H]2O)Oc2ccc(cc2Cl)[C@H]1O`: the MIC in test [1] is 32 µg/mL (≈ 17.1 µM); in test [2], 0.5 µg/mL (≈ 0.267 µM); in test [3], 16 µg/mL (≈ 8.53 µM).
The matching figures for `CN[C@H](CC(C)C)C(=O)N[C@H]1C(=O)N[C@@H](CC(N)=O)C(=O)N[C@H]2C(=O)N[C@H]3C(=O)NC(C(=O)N[C@@H](C(=O)NC(=O)[C@H](CCCCN)NC(=O)[C@H](Cc4ccc(O)cc4)NC(=O)[C@@H](N)CC(C)C)c4cc(O)cc(O)c4-c4cc3ccc4O)[C@H](O[C@H]3C[C@](C)(N)[C@@H](O)[C@H](C)O3)c3ccc(c(Cl)c3)Oc3cc2cc(c3O[C@@H]2O[C@H](CO)[C@@H](O)[C@H](O)[C@H]2O)Oc2ccc(cc2Cl)[C@H]1O`: 128 µg/mL (≈ 69.1 µM), 0.5 µg/mL (≈ 0.27 µM) and 32 µg/mL (≈ 17.3 µM).
In the case of `CN[C@H](CC(C)C)C(=O)N[C@H]1C(=O)N[C@@H](CC(N)=O)C(=O)N[C@H]2C(=O)N[C@H]3C(=O)NC(C(=O)N[C@@H](C(=O)NC(=O)CNC(=O)[C@H](Cc4c[nH]cn4)NC(=O)[C@@H](N)Cc4c[nH]c5ccccc45)c4cc(O)cc(O)c4-c4cc3ccc4O)[C@H](O[C@H]3C[C@](C)(N)[C@@H](O)[C@H](C)O3)c3ccc(c(Cl)c3)Oc3cc2cc(c3O[C@@H]2O[C@H](CO)[C@@H](O)[C@H](O)[C@H]2O)Oc2ccc(cc2Cl)[C@H]1O`, the MIC in test [1] amounted to 32 µg/mL (≈ 17.5 µM); in test [2] it was 0.25 µg/mL (≈ 0.137 µM); in test [3] it was 16 µg/mL (≈ 8.75 µM).
For the compound `CN[C@H](CC(C)C)C(=O)N[C@H]1C(=O)N[C@@H](CC(N)=O)C(=O)N[C@H]2C(=O)N[C@H]3C(=O)NC(C(=O)N[C@@H](C(=O)NC(=O)[C@H](Cc4c[nH]cn4)NC(=O)[C@H](Cc4c[nH]c5ccccc45)NC(=O)[C@@H](N)Cc4ccc(O)cc4)c4cc(O)cc(O)c4-c4cc3ccc4O)[C@H](O[C@H]3C[C@](C)(N)[C@@H](O)[C@H](C)O3)c3ccc(c(Cl)c3)Oc3cc2cc(c3O[C@@H]2O[C@H](CO)[C@@H](O)[C@H](O)[C@H]2O)Oc2ccc(cc2Cl)[C@H]1O`, the MIC in test [1] stood at 16 µg/mL (≈ 8.27 µM); in test [2], 0.5 µg/mL (≈ 0.258 µM); in test [3], 8 µg/mL (≈ 4.13 µM).
Regarding `CN[C@H](CC(C)C)C(=O)N[C@H]1C(=O)N[C@@H](CC(N)=O)C(=O)N[C@H]2C(=O)N[C@H]3C(=O)NC(C(=O)N[C@@H](C(=O)NC(=O)[C@H](Cc4ccc(O)cc4)NC(=O)[C@H](Cc4c[nH]c5ccccc45)NC(=O)[C@@H](N)CC(C)C)c4cc(O)cc(O)c4-c4cc3ccc4O)[C@H](O[C@H]3C[C@](C)(N)[C@@H](O)[C@H](C)O3)c3ccc(c(Cl)c3)Oc3cc2cc(c3O[C@@H]2O[C@H](CO)[C@@H](O)[C@H](O)[C@H]2O)Oc2ccc(cc2Cl)[C@H]1O`, the minimum inhibitory concentration (MIC) in test [1] stood at 16 µg/mL (≈ 8.37 µM); in test [2] it was 0.5 µg/mL (≈ 0.262 µM); in test [3] it was 8 µg/mL (≈ 4.19 µM).
In the case of `CN[C@H](CC(C)C)C(=O)N[C@H]1C(=O)N[C@@H](CC(N)=O)C(=O)N[C@H]2C(=O)N[C@H]3C(=O)NC(C(=O)N[C@@H](C(=O)NC(=O)[C@H](CCC(=O)O)NC(=O)CNC(=O)[C@@H](N)Cc4ccc(O)cc4)c4cc(O)cc(O)c4-c4cc3ccc4O)[C@H](O[C@H]3C[C@](C)(N)[C@@H](O)[C@H](C)O3)c3ccc(c(Cl)c3)Oc3cc2cc(c3O[C@@H]2O[C@H](CO)[C@@H](O)[C@H](O)[C@H]2O)Oc2ccc(cc2Cl)[C@H]1O`, the minimal inhibitory concentration (MIC) in test [1] is more than 128 µg/mL; in test [2], 4 µg/mL (≈ 2.23 µM); in test [3] it was more than 128 µg/mL.
Take `CN[C@H](CC(C)C)C(=O)N[C@H]1C(=O)N[C@@H](CC(N)=O)C(=O)N[C@H]2C(=O)N[C@H]3C(=O)NC(C(=O)N[C@@H](C(=O)NC(=O)[C@H](Cc4ccc(O)cc4)NC(=O)[C@H](Cc4c[nH]c5ccccc45)NC(=O)[C@@H](N)CCC(=O)O)c4cc(O)cc(O)c4-c4cc3ccc4O)[C@H](O[C@H]3C[C@](C)(N)[C@@H](O)[C@H](C)O3)c3ccc(c(Cl)c3)Oc3cc2cc(c3O[C@@H]2O[C@H](CO)[C@@H](O)[C@H](O)[C@H]2O)Oc2ccc(cc2Cl)[C@H]1O`: the results for the MIC in test [1], in test [2] and in test [3] were more than 128 µg/mL, 8 µg/mL (≈ 4.15 µM) and more than 128 µg/mL, respectively.
For the compound `CN[C@H](CC(C)C)C(=O)N[C@H]1C(=O)N[C@@H](CC(N)=O)C(=O)N[C@H]2C(=O)N[C@H]3C(=O)NC(C(=O)N[C@@H](C(=O)NC(=O)CNC(=O)[C@H](Cc4c[nH]c5ccccc45)NC(=O)[C@@H](N)CCCCN)c4cc(O)cc(O)c4-c4cc3ccc4O)[C@H](O[C@H]3C[C@](C)(N)[C@@H](O)[C@H](C)O3)c3ccc(c(Cl)c3)Oc3cc2cc(c3O[C@@H]2O[C@H](CO)[C@@H](O)[C@H](O)[C@H]2O)Oc2ccc(cc2Cl)[C@H]1O`, the MIC in test [1] is 64 µg/mL (≈ 35.2 µM); in test [2], 0.25 µg/mL (≈ 0.137 µM); in test [3] it was 32 µg/mL (≈ 17.6 µM).
As to `CN[C@H](CC(C)C)C(=O)N[C@H]1C(=O)N[C@@H](CC(N)=O)C(=O)N[C@H]2C(=O)N[C@H]3C(=O)NC(C(=O)N[C@@H](C(=O)O)c4cc(O)cc(O)c4-c4cc3ccc4O)[C@H](O[C@H]3C[C@](C)(N)[C@@H](O)[C@H](C)O3)c3ccc(c(Cl)c3)Oc3cc2cc(c3O[C@@H]2O[C@H](CO)[C@@H](O)[C@H](O)[C@H]2O)Oc2ccc(cc2Cl)[C@H]1O`, the results for the minimal inhibitory concentration (MIC) in test [1], in test [2] and in test [3] were more than 128 µg/mL, 0.5 µg/mL (≈ 0.345 µM) and more than 128 µg/mL, respectively.
For the compound `CN[C@H](CC(C)C)C(=O)N[C@H]1C(=O)N[C@@H](CC(N)=O)C(=O)N[C@H]2C(=O)N[C@H]3C(=O)NC(C(=O)N[C@@H](C(=O)NC(=O)[C@H](Cc4ccc(O)cc4)NC(=O)[C@H](Cc4c[nH]cn4)NC(=O)[C@@H](N)CCCCN)c4cc(O)cc(O)c4-c4cc3ccc4O)[C@H](O[C@H]3C[C@](C)(N)[C@@H](O)[C@H](C)O3)c3ccc(c(Cl)c3)Oc3cc2cc(c3O[C@@H]2O[C@H](CO)[C@@H](O)[C@H](O)[C@H]2O)Oc2ccc(cc2Cl)[C@H]1O`, the minimum inhibitory concentration (MIC) is 128 µg/mL (≈ 68.2 µM) in test [1], 1 µg/mL (≈ 0.533 µM) in test [2] and 64 µg/mL (≈ 34.1 µM) in test [3].
As to `CN[C@H](CC(C)C)C(=O)N[C@H]1C(=O)N[C@@H](CC(N)=O)C(=O)N[C@H]2C(=O)N[C@H]3C(=O)N[C@H](C(=O)N[C@H](C(=O)NC(=O)[C@H](Cc4c[nH]cn4)NC(=O)[C@@H]4CCCN4C(=O)[C@@H](N)Cc4c[nH]c5ccccc45)c4cc(O)cc(O)c4-c4cc3ccc4O)[C@H](O[C@H]3C[C@](C)(N)[C@@H](O)[C@H](C)O3)c3ccc(c(Cl)c3)Oc3cc2cc(c3OC2O[C@H](CO)[C@@H](O)[C@H](O)[C@H]2O)Oc2ccc(cc2Cl)[C@H]1O` (some centres not stated), the results for the MIC in test [1], in test [2] and in test [3] were 64 µg/mL (≈ 34.2 µM), 0.5 µg/mL (≈ 0.268 µM) and 16 µg/mL (≈ 8.56 µM), respectively.
The matching figures for `CN[C@H](CC(C)C)C(=O)N[C@H]1C(=O)N[C@@H](CC(N)=O)C(=O)N[C@H]2C(=O)N[C@H]3C(=O)NC(C(=O)N[C@@H](C(=O)NC(=O)[C@H](CCCCN)NC(=O)CNC(=O)[C@@H](N)Cc4ccc(O)cc4)c4cc(O)cc(O)c4-c4cc3ccc4O)[C@H](O[C@H]3C[C@](C)(N)[C@@H](O)[C@H](C)O3)c3ccc(c(Cl)c3)Oc3cc2cc(c3O[C@@H]2O[C@H](CO)[C@@H](O)[C@H](O)[C@H]2O)Oc2ccc(cc2Cl)[C@H]1O`: 128 µg/mL (≈ 71.2 µM), 0.5 µg/mL (≈ 0.278 µM) and 64 µg/mL (≈ 35.6 µM).
For the compound `CN[C@H](CC(C)C)C(=O)N[C@H]1C(=O)N[C@@H](CC(N)=O)C(=O)N[C@H]2C(=O)N[C@H]3C(=O)NC(C(=O)N[C@@H](C(=O)NC(=O)[C@H](CO)NC(=O)[C@H](Cc4c[nH]c5ccccc45)NC(=O)[C@@H](N)Cc4ccc(O)cc4)c4cc(O)cc(O)c4-c4cc3ccc4O)[C@H](OC3C[C@](C)(N)[C@@H](O)[C@H](C)O3)c3ccc(c(Cl)c3)Oc3cc2cc(c3O[C@@H]2O[C@H](CO)[C@@H](O)[C@H](O)[C@H]2O)Oc2ccc(cc2Cl)[C@H]1O` (some centres not stated), the MIC worked out at 32 µg/mL (≈ 17 µM) in test [1], 0.5 µg/mL (≈ 0.265 µM) in test [2] and 16 µg/mL (≈ 8.49 µM) in test [3].
